Format in all cases: cell-based
For assay [1], the system named is HCC827 (exon 19 deletion) cells. The assay can be described thus: Cell viability assay. Conditions: Homo sapiens, HCC827, 72 h.
For assay [2], the system named is EGFR downstream signal transduction pathways and RTKs. The assay can be described thus: Western blotting, osimertinib with TPX-0005, PC9, 11–18 and H1975 cell lines. Conditions: TPX-0005 1 μM, 24 h. For orientation: A western blot detects proteins with antibodies after separation by electrophoresis.
In assay [3] the test system is HCC4006 (exon 19 deletion) cells. The assay can be described thus: Cell viability assay. Conditions: Homo sapiens, HCC4006, 72 h.
In assay [4] the test system is H1975 (Leu858Arg and Thr790Met) cells. The assay can be described thus: cells. Particulars: for IC50: Homo sapiens, NCI-H1975, 72 h.
The subject of assay [5] is PC9 (exon 19 deletion) cells. Nature of the assay: Cell viability assay. Conditions: for IC50: Homo sapiens, PC-9, 72 h.
A further assay concerns 11–18 (Leu858Arg) cells. Nature of the assay: cells. Particulars: 72 h.
Assay [6] has as its system phospho-STAT3 in PC9 cells. The assay can be described thus: Immunofluorescence and imaging flow cytometry of STAT3 / phospho-STAT3. Conditions: 24 h. (In general: Flow cytometry measures light scatter and fluorescence of single cells or particles in a stream.)
Assay [7] relates to mRNA expression of RTK and non-RTK genes. Nature of the assay: Quantitative RT-PCR after treatment, PC9 and H1975 cells. Particulars: TPX-0005 1 μM alone or combined with an EGFR TKI, five days.
The test system of assay [8] is STAT3 and FAK phosphorylation. The assay can be described thus: Western blotting, dasatinib or TPX-0005, PC9 and H1975 cell lines. Particulars: dasatinib 50 and 100 μM respectively, 24 h.
Setting [9] is: osimertinib 0.05, 0.8 and 0.02 μM respectively.

Broadly, the IC50 is the point on the concentration scale where inhibition reaches its midpoint.

The structures appear in SMILES notation. Where only a bound is given, the exact number is not on record here.

`C=CC(=O)Nc1cc(Nc2nccc(-c3cn(C)c4ccccc34)n2)c(OC)cc1N(C)CCN(C)C` [Osimertinib]: the half-inhibitory concentration (IC50) in assay [1] was found to be 0.01 µM; in [3], 0.01 µM; in assay [4], 0.02 µM; in assay [5], 0.02 µM. Also, the “Src and FAK phosphorylation” value in [2] (setting [9]) is given as “induced”.

For the molecule `COc1cc2ncnc(Nc3ccc(F)c(Cl)c3)c2cc1NC(=O)/C=C/CN1CCCCC1` [Dacomitinib], the half-maximal inhibitory concentration (IC50) in assay [1] is less than 0.01 µM; with 11–18 (Leu858Arg) cells, 0.01 µM; in [3] it was less than 0.01 µM; in assay [5] it was less than 0.01 µM.

Regarding `C[C@H]1CNC(=O)c2cnn3ccc(nc23)N[C@H](C)c2cc(F)ccc2O1` [TPX-0005], the “AXL total protein expression” value in assay [2] was “minor effect”. Further, the CDCP1 phosphorylation entry in assay [2] (setting [9]) is given as “diminished”. In assay [2] (setting [9]), the “Src and FAK phosphorylation” value is given as “abrogated”. Also, the “STAT3 activation state by intracellular localization (immunofluorescence)” value in assay [6] is “did not occur”. The IC50 in assay [3] amounted to 1.48 µM; in [4], 1 µM; in assay [5], 1 µM. For the same molecule, the “interaction of TPX-0005 with osimertinib (cell viability, colony formation)” value in assay [4] was “synergistic”. Further, the “mRNA expression of most of the transcripts explored” value in [7] is on record as “abolished or attenuated”. For the same molecule, the “interaction of TPX-0005 with gefitinib (cell viability, colony formation)” value in assay [5] (PC9 cells) is “synergistic”.

As to `Cc1nc(Nc2ncc(C(=O)Nc3c(C)cccc3Cl)s2)cc(N2CCN(CCO)CC2)n1` [Dasatinib], the “STAT3 and FAK phosphorylation” value in assay [8] is given as “induced”.

The values above are taken from paper PMC5925453 (EBioMedicine, 2018).
